Patent US11186565B2, “Aromatic compound” (TAKEDA PHARMACEUTICAL COMPANY LIMITED, priority 2017, dated 2021)

Target: T1, human GPR40 (Homo sapiens, UniProt O14842)
T1 construct: expressed in transfected cells
Test: Human GPR40 agonist activity with increase in intracellular Ca2+ concentration as an index
Assay type: cell-based
Conditions: test compound at final concentration 1 μM; CHO(dhfr−) cells stably expressing human GPR40; FLIPR Ca2+ fluorescence; 100% = 10 μM compound of WO 2015/020184 Example 153, 0% = DMSO
Protocol: Evaluation of Human GPR40 Agonist Activity with Increase in Intracellular Ca^2+ Concentration as an Index
CHO(dhfr−) cells that stably expressed human GPR40 were suspended in MEMα (Wako Pure Chemical Industries, Ltd.) containing 10% dialyzed serum (Thermo Fisher Scientific), 10 mM HEPES (Thermo Fisher Scientific), 100 U/mL penicillin, 100 μg/mL streptomycin (Wako Pure Chemical Industries, Ltd.), and plated on a 384 well black/clear cell culture plate at 10,000 cells/well. After culture overnight in a CO2 incubator at 37° C., the culture supernatant was removed, and loading buffer [Ca^2+ probe attached to Calcium Kit II-iCellux (DOJINDO) was dissolved in assay buffer (20 mM HEPES, 0.1% fatty acid-free BSA (Wako Pure Chemical Industries, Ltd.), 2.5 mM probenecid (DOJINDO)-containing HESS (Thermo Fisher Scientific))] was added at 30 μL/well. After leaving for 1 hr at room temperature under light shielding, assay buffer containing the test compound at a final concentration of 1 μM was added at 10 μL/well in fluorescence plate reader FLIPR Tetra (Molecular Devices), and the fluorescence amount was successively measured. Human GPR40 agonist activity was calculated using an increase in the intracellular Ca^2+ concentration as an index, wherein the activity of 10 μM of the compound of WO 2015/020184 (Example 153: 3-cyclopropyl-3-(2-((1-(2-((2-fluoro-2-methylpropyl)(4-methylpyridin-2-yl)carbamoyl)-5-methoxyphenyl)piperidin-4-yl)methoxy)pyridin-4-yl)propanoic acid) was 100%, and the activity when DMSO was added instead of the test compound was 0%.

T1 sequence (O14842 whole entry): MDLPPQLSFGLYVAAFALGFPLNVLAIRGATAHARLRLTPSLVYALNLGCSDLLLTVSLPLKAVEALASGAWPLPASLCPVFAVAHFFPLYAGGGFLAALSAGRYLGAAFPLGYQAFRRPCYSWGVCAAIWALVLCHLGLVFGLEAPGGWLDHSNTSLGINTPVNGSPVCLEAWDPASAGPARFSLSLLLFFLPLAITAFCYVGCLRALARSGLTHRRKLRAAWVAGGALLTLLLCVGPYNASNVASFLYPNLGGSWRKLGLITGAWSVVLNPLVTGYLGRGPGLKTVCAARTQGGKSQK

| SMILES | activity (human GPR40 agonist activity) |
| --- | --- |
| COc1cc(N2CCC(COc3cc([C@@H](CC(=O)O)C4CC4)ccn3)CC2)c(NCC(F)(F)C(F)(F)F)cn1 [Example 6, (3S)-3-cyclopropyl-3-(2-((1-(2-methoxy-5-((2,2,3,3,3-pentafluoropropyl)amino)pyridin-4-yl)piperidin-4-yl)methoxy)pyridin-4-yl)propanoic acid] | 106% |
| COc1ccc(-c2ccc(OC)nc2)c(O[C@H]2CC[C@H](Oc3cc(C(CC(=O)O)C4CC4)ccn3)CC2)c1 (stereo partly drawn) [Example 7, 3-cyclopropyl-3-(2-((trans-4-(5-methoxy-2-(6-methoxypyridin-3-yl)phenoxy)cyclohexyl)oxy)pyridin-4-yl)propanoic acid] | 80% |
| COc1ccc(-c2cnc(OCC(F)(F)F)nc2)c(O[C@H]2CC[C@H](Oc3cc(C(CC(=O)O)C4CC4)ccn3)CC2)c1 (stereo partly drawn) [Example 3, 3-cyclopropyl-3-(2-((trans-4-(5-methoxy-2-(2-(2,2,2-trifluoroethoxy)pyrimidin-5-yl)phenoxy)cyclohexyl)oxy)pyridin-4-yl)propanoic acid] | 84% |
| COc1ccc(C2CCN(CC(F)(F)F)CC2)c(O[C@H]2CC[C@H](Oc3cc(C(CC(=O)O)C4CC4)ccn3)CC2)c1 (stereo partly drawn) [Example 1, 3-cyclopropyl-3-(2-((trans-4-(5-methoxy-2-(1-(2,2,2-trifluoroethyl)piperidin-4-yl)phenoxy)cyclohexyl)oxy)pyridin-4-yl)propanoic acid] | 86% |
| COc1cc(N2CCC(COc3cc([C@@H](CC(=O)O)C4CC4)ccn3)CC2)c(C2CCN(CC(F)(F)F)CC2)cn1 [Example 4, (3S)-3-cyclopropyl-3-(2-((1-(2-methoxy-5-(1-(2,2,2-trifluoroethyl)piperidin-4-yl)pyridin-4-yl)piperidin-4-yl)methoxy)pyridin-4-yl)propanoic acid] | 110% |
